Source: patent US10172787B2, “Method of regulating a condition of mammalian keratinous tissue” (priority 2015, dated 2019)

Tested on: interleukin-18 (IL-18)
Assay: Skin sensitization potential: IL-18 production in HEK
Assay type: cell-based, human
Conditions: 16 hours
Procedure: It is possible for a material to not be cytotoxic, and yet be unsafe due to provoking an allergic reaction upon skin contact. Typically, initial exposure to an allergen sensitizes the immune system, and following exposures cause an allergic response. […] Thus, IL-18 production in HEK was evaluated to determine sensitization potential.
Normal human adult epidermal keratinocytes (HEK) were cultured as described above for the cytoxicity evaluation. […] The cell lysates were collected, and IL-18 was quantified using Human IL-18 ELISA Kit (Catalog #7620, produced by MBL International Co., Woburn, Mass., USA). […] Fold changes of IL-18 levels between test articles and respective vehicle controls were calculated and compared to pPD (positive control). […]

## Nc1ccc(N)cc1 [benchmark sensitizer, para-phenylenediamine]
  IL18 Maximum fold (vs vehicle control): 7.8 fold)
